Experimental data reported in US20230255970A1, “COMPOSITIONS AND METHODS FOR TREATING PROLIFERATIVE DISEASES” (The Broad Institute, Inc., priority 2020, published 2023).

Columns and labels:
[1] = tested on: STK3/MST2 overexpression; experiment: Cell Painting morphological profile matching to STK3/MST2 overexpression; assay type: cell-based, human
Description: To profile each exogenously expressed gene (or allele therein), the previously developed image-based profiling assay, called Cell Painting was used (see Bray et al., Nat. Protoc. 2016 September; 11(9): 1757-1774). […] In five replicates in 384-well plate format, U2OS cells (human bone osteosarcoma cells), chosen for their flat morphology and previous validation in the assay, were infected with an arrayed ‘reference’ expression library of 323 open reading frame (ORF) constructs of partially characterized functions, a subset of which have been previously described. […]
Using the morphological signature found for YAP1 and TAZ, data mining was performed seeking compounds that effected the same (or opposite) morphology by computationally matching the morphological signature to a public database of small molecule signatures (see Caicedo et al., Nat. Meth. 2017 September; 14(9), 849-63, doi:10.1038/nMeth.4397, incorporated herein by reference). Specifically, the intersection of features in the two datasets was determined, resulting in 605 features (1399 features in the genetic screen, without any feature selection; and 729 features in the compound screen, obtained using the findCorrelation function with a threshold of 0.90 on the original 1,783 dimensional feature set). […]

[2] = tested on: YAP1; experiment: YAP1 immunofluorescence in H9 cells; assay type: cell-based, human; conditions: 10 μM, 24 hours
Protocol: H9 hPSCs (WiCell) were maintained on vitronectin (Thermo Fisher)-coated plates in Essential 8 (E8) medium. The cells were routinely passaged using 0.5 mM EDTA and treated with 5 μM Y-27632 dihydrochloride (Tocris) on the first day. For testing the effects of the small molecules, H9 hPSCs were seeded at 50K cells/cm^2 on vitronectin-coated plates in E8 medium supplemented with 5 μM Y-27632 dihydrochloride (day 0). On day 1, the medium was switched to E8 medium. On day 2, the medium was switched to E8 medium supplemented with the small molecules. Following overnight incubation, the cells were collected for subsequent analysis on day 3.
The cells were fixed with 4% formaldehyde for 15 mins at room temperature. The cells were permeabilized and blocked with PBS containing 2% BSA and 0.1% Triton-X100. The cells were incubated with a primary antibody against YAP1 (sc-101199) at 1:1000 dilution in a blocking buffer overnight at 4° C. Then, a goat anti-mouse Alexa Fluor 488 conjugated secondary antibody was added for 1 hour at room temperature. […] Images were collected with Olympus FV1200 microscope and analyzed with CellProfiler. […] The cell cytoplasm was determined as the region outside nuclei but within the cell bodies. Then, an average pixel intensity of YAP in the nucleus and cytoplasm was calculated to determine YAP translocation

## c1ccc(CNc2ncnc3ccccc23)cc1 [BRD-K43796186, N-benzylquinazolin-4-amine]
[1]
  Morphological profile correlation with overexpression of STK3/MST2: −0.49
[2]
  YAP1 nuclear localization: increased YAP1 nuclear localization
